PMC3777193, “Diaryl- and triaryl-pyrrole derivatives: inhibitors of the MDM2–p53 and MDMX–p53 protein–protein interactions” (Medchemcomm, 2013)
Like-named read-outs stand apart in the source and are kept apart here.

Tests used:
MDM2–p53 = MDM2–p53 (Homo sapiens, UniProt Q00987); assay: MDM2–p53 ELISA protein–protein binding assay
[1] = Growth inhibitory activity, A2708 (Table S3); type: cell-based; details: read-out: GI50 A2708
Description: (§1) (2 pictures or pasted objects on this page, not shown here)

A2780-CP70 = assay: Growth inhibitory activity, A2780-CP70 (Table S3); type: cell-based; details: A2780/CP70, read-out: GI50 A2780-CP70
Description: as §1

HCT116 = assay: Growth inhibitory activity, HCT116 (Table S3); type: cell-based; details: Homo sapiens, HCT-116, read-out: GI50 HCT116
Description: as §1

HCT116 p53(-/-) = assay: Growth inhibitory activity, HCT116 p53(-/-) (Table S3); type: cell-based; details: Homo sapiens, HCT-116, read-out: GI50 HCT116 p53(-/-)
Description: as §1

SJSA-1 cells = type: cell-based; details: SJSA-1 (MDM2 amplified, p53wt), 5 μM, 4 h
A2780CP70 cells = type: cell-based; details: A2780 CP70 (p53 mutant), 0.1, 0.2 and 5 μM, 4 h
SJSA-1 = assay: Growth inhibitory activity, SJSA-1; details: Homo sapiens, SJSA-1, read-out: GI50 SJSA-1
Description: (§2) Growth inhibitory activity was determined for selected pyrroles in a panel of cell lines with defined MDM2, MDMX and p53 status (Table 5).

MDMX–p53 = biological target: T1, MDMX–p53 (Homo sapiens, UniProt O15151); assay: MDMX–p53 ELISA binding assay
T1 construct: host or cells: in vitro coupled T7 transcription and rabbit reticulocyte lysate translation
T1 sequence (O15151 1-490): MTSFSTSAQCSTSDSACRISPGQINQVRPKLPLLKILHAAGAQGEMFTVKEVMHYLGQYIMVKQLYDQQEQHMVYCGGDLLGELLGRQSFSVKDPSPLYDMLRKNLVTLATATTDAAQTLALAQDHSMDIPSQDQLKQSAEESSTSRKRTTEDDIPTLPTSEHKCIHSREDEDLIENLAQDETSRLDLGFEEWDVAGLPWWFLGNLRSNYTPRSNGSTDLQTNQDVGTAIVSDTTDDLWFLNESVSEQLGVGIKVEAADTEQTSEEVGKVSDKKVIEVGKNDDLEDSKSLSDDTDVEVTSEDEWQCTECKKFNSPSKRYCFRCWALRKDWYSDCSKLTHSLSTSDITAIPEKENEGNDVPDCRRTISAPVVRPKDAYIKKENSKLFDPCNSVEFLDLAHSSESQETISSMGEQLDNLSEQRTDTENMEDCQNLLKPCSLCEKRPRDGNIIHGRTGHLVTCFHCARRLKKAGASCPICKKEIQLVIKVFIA

SN40R2 = assay: Growth inhibitory activity, SN40R2; details: read-out: GI50 SN40R2
Description: as §2

MRK-NU-1 = assay: Growth inhibitory activity, MRK-NU-1; details: Homo sapiens, MRK-nu-1, read-out: GI50 MRK-NU-1
Description: as §2

[2] = Table 3, n = 3 (b n = 5), read-out: MDM2 IC50
[3] = Table 3, n = 3 (c n = 1), read-out: MDMX IC50

MDM2–p53, sequence (Q00987 whole entry): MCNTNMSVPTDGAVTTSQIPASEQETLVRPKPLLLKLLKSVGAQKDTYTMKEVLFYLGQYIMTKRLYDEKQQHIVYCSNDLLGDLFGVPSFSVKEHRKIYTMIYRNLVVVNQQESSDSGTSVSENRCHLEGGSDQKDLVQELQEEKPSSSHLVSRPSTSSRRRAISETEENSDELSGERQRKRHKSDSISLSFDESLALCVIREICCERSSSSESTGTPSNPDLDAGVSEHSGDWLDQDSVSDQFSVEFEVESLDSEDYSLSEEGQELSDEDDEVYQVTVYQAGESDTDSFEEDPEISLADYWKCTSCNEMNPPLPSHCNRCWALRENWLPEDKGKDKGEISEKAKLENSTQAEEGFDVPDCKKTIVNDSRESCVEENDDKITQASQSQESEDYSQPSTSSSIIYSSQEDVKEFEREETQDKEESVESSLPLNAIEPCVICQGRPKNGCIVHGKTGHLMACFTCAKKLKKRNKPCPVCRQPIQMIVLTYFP

Cc1cc(C=C2C(=O)NC(=S)NC2=O)c(C)n1-c1sc2c(c1C#N)CCCC2 [Compound 3, 2-(3-((4,6-dioxo-2-thioxotetrahydropyrimidin-5(2H)-ylidene)methyl)-2,5-dimethyl-1H-pyrrol-1-yl)-4,5,6,7-tetrahydrobenzo[b]thiophene-3-carbonitrile]
IC50 (MDM2–p53): 12.3 µM | GI50 [1]: 3.9 ± 0.1 µM | GI50 (A2780-CP70): 3.9 ± 0.1 µM | GI50 (HCT116): 7.8 ± 0.2 µM | GI50 (HCT116 p53(-/-)): 7.7 ± 0.1 µM | induction of MDM2, p53, and p21 (Western blot) (SJSA-1 cells): clearly visible | induction of MDM2, p53, and p21 (Western blot) (A2780CP70 cells): no induction | GI50 (SJSA-1): 4.4 ± 0.1 µM

O=C1NC(=O)C(=Cc2cc(-c3ccccc3)n(-c3ccc(Cl)cc3)c2-c2ccccc2)C(=O)N1 [Compound 4m]
IC50 (MDM2–p53; read-out: MDM2 IC50): 0.3 ± 0.03 µM

CC(C)(C)c1cc(C=C2C(=O)NC(=S)NC2=O)c(-c2ccccc2)n1-c1ccc(Br)cc1 [Compound 11b]
IC50 (MDM2–p53; read-out: MDM2 IC50): 0.76 ± 0.27 µM | fold loss of potency for MDMX (MDMX–p53): > 200 fold | IC50 (MDMX–p53; read-out: MDMX IC50): 963 µM

CC1(C)OC(=O)C(=Cc2cc(-c3ccccc3)n(-c3ccc(Br)cc3)c2-c2ccccc2)C(=O)O1 [Compound 7]
fold less potent than 8c against MDM2–p53 (MDM2–p53): > 100 fold | IC50 (MDM2–p53; [2]): 17 ± 4 µM

NC(=O)C(=Cc1cc(-c2ccccc2)n(-c2ccc(Cl)cc2)c1-c1ccccc1)C(N)=O [Compound 10c]
IC50 (MDM2–p53; [2]): 2.5 ± 0.2 µM | IC50 (MDMX–p53; [3]): 30 µM

O=C(NCCO)C(=Cc1cc(-c2ccccc2)n(-c2ccc(Cl)cc2)c1-c1ccccc1)C(=O)NCCO [Compound 10e]
fold loss of potency against MDM2–p53 (MDM2–p53; N-alkyl malonamides compared with 10c): 6 fold | IC50 (MDM2–p53; [2]): 15 ± 3 µM | IC50 (MDMX–p53; [3]): 42 µM

N#Cc1ccc(-n2c(-c3ccccc3)cc(C=C3C(=O)NC(=S)NC3=O)c2-c2ccccc2)cc1 [Compound 4r]
IC50 (MDM2–p53; read-out: MDM2 IC50): 0.2 ± 0.07 µM | IC50 (MDMX–p53; read-out: MDMX IC50): 0.9 ± 0.42 µM | GI50 (SJSA-1): 5.1 ± 0.9 µM | GI50 (SN40R2): 5.9 ± 0.3 µM | GI50 (MRK-NU-1): 6.1 ± 0.7 µM

CC(C)(C)c1cc(C=C2C(=O)NC(=S)NC2=O)c(-c2ccccc2)n1-c1ccc(Cl)cc1 [Compound 11c]
IC50 (MDM2–p53; read-out: MDM2 IC50): 1.1 ± 0.7 µM | fold loss of potency for MDMX (MDMX–p53): > 200 fold | IC50 (MDMX–p53; read-out: MDMX IC50): 1680 µM

CN1C(=O)NC(=O)C(=Cc2cc(-c3ccccc3)n(-c3ccc(Br)cc3)c2-c2ccccc2)C1=O [Compound 4y]
IC50 (MDM2–p53): 0.34 ± 0.08 µM | IC50 (MDMX–p53): 35 ± 20 µM

N#Cc1ccc(-n2c(-c3ccccc3)cc(C=C3C(=O)NC(=O)NC3=O)c2-c2ccccc2)cc1 [Compound 4q]
IC50 (MDM2–p53; read-out: MDM2 IC50): 4.7 ± 1.9 µM | IC50 (MDMX–p53; read-out: MDMX IC50): 7 ± 3 µM

O=C1NC(=S)N(c2cccc(Cl)c2)C(=O)/C1=C/c1cc(-c2ccccc2)n(-c2ccc(Cl)cc2)c1-c1ccccc1 [Compound 4e]
IC50 (MDM2–p53; read-out: MDM2 IC50): 0.163 ± 0.017 µM

O=C(O)/C=C/c1cc(-c2ccccc2)n(-c2ccc(Cl)cc2)c1-c1ccccc1 [Compound 10f]
activity against MDM2–p53 in words (MDM2–p53): only weakly active | IC50 (MDM2–p53; [2]): 17 ± 3 µM | activity against MDMX–p53 in words (MDMX–p53): inactive | IC50 (MDMX–p53; [3]): > 50 µM

Cc1cc(/C=C2\C(=O)NC(=S)N(c3ccccc3)C2=O)c(C)n1-c1ccc(Cl)cc1 [Compound 4b]
IC50 (MDM2–p53; read-out: MDM2 IC50): 3.3 ± 0.7 µM | GI50 [1]: 8.4 ± 0.2 µM | GI50 (A2780-CP70): 9.5 ± 0.1 µM | GI50 (HCT116): 9.5 ± 0.3 µM | GI50 (HCT116 p53(-/-)): 9.9 ± 0.1 µM | GI50 (SJSA-1): 7.6 ± 0.1 µM

O=C1NC(=O)C(=Cc2cc(-c3ccccc3)n(-c3ccc(Br)cc3)c2-c2ccccc2)C(=O)N1 [Compound 4n]
IC50 (MDM2–p53; read-out: MDM2 IC50): 0.18 ± 0.07 µM

O=C1NC(=S)NC(=O)C1=Cc1cc(-c2ccccc2)n(-c2ccc([N+](=O)[O-])cc2)c1-c1ccccc1 [Compound 4t]
IC50 (MDM2–p53; read-out: MDM2 IC50): 0.17 ± 0.09 µM | IC50 (MDMX–p53; read-out: MDMX IC50): 0.63 ± 0.12 µM | GI50 (SJSA-1): 4.7 ± 1 µM | GI50 (SN40R2): 5.2 ± 0.4 µM | GI50 (MRK-NU-1): 4.9 ± 0.6 µM

O=C1NC(=O)C(=Cc2cc(-c3ccccc3)n(-c3ccc([N+](=O)[O-])cc3)c2-c2ccccc2)C(=O)N1 [Compound 4s, 5-((1-(4-nitrophenyl)-2,5-diphenyl-1H-pyrrol-3-yl)methylene)pyrimidine-2,4,6(1H,3H,5H)-trione]
IC50 (MDM2–p53; read-out: MDM2 IC50): 0.15 ± 0.06 µM | IC50 (MDMX–p53; read-out: MDMX IC50): 0.68 ± 0.18 µM

CN1C(=O)C(=Cc2cc(-c3ccccc3)n(-c3ccc(Cl)cc3)c2-c2ccccc2)C(=O)NC1=S [Compound 4x]
IC50 (MDM2–p53): 0.11 ± 0.02 µM | IC50 (MDMX–p53): 28 ± 23 µM | GI50 (SJSA-1): 5.5 ± 0.6 µM | GI50 (SN40R2): 6.3 ± 0.4 µM | GI50 (MRK-NU-1): 7 ± 1 µM

O=C(O)C(=Cc1cc(-c2ccccc2)n(-c2ccc(Cl)cc2)c1-c1ccccc1)C(=O)O [Compound 10b]
activity against MDM2–p53 in words (MDM2–p53): modest activity | IC50 (MDM2–p53; [2]): 2.9 ± 0.2 µM | IC50 (MDMX–p53; [3]): > 50 µM

COc1ccc(-n2c(-c3ccccc3)cc(C=C3C(=O)NC(=O)NC3=O)c2-c2ccccc2)cc1 [Compound 4o]
IC50 (MDM2–p53; read-out: MDM2 IC50): 1.9 ± 0.3 µM | IC50 (MDMX–p53; read-out: MDMX IC50): 13 ± 7 µM

Cc1ccc(-n2c(C)cc(/C=C3\C(=O)NC(=S)N(c4ccccc4)C3=O)c2C)cc1 [Compound 4i]
IC50 (MDM2–p53; read-out: MDM2 IC50): 8.4 ± 0.9 µM | GI50 [1]: 7.5 ± 0.1 µM | GI50 (A2780-CP70): 9 ± 0.4 µM | GI50 (HCT116): 9.5 ± 0.3 µM | GI50 (HCT116 p53(-/-)): 9.7 ± 0.2 µM | GI50 (SJSA-1): 7.1 ± 0.1 µM
